Data taken from ChEMBL document CHEMBL4346759, “The synthesis of a novel Crizotinib heptamethine cyanine dye conjugate that potentiates the cytostatic and cytotoxic effects of Crizotinib in patient-derived glioblastoma cell lines” (Bioorg Med Chem Lett, 2019).

How the values were obtained:
GBM [1] = experiment: Antiproliferative activity against patient-derived GBM cells assessed as reduction in cell viability after 48 hrs by 5-Ethynyl-2'-deoxyuridine incorporation assay; assay type: functional, cell-based; settings: Homo sapiens
GBM [2] = experiment: Synergistic antiproliferative activity against patient-derived GBM cells assessed as cell viability after 48 hrs in presence of temozolomide by 5-Ethynyl-2'-deoxyuridine incorporation assay; assay type: functional, cell-based; settings: Homo sapiens
GBM [3] = experiment: Selectivity ratio of EC50 for antiproliferative activity against patient-derived GBM cells to EC50 for antiproliferative activity against patient-derived GBM cells in presence of temozolomide; assay type: functional, Homo sapiens
GBM [4] = experiment: Antiproliferative activity against patient-derived GBM cells assessed as cell viability after 48 hrs by 5-Ethynyl-2'-deoxyuridine incorporation assay; assay type: functional, cell-based; settings: Homo sapiens
GBM [5] = experiment: cells; assay type: functional, cell-based; settings: Homo sapiens, 48 h
Description: Synergistic antiproliferative activity against patient-derived GBM cells assessed as reduction in cell viability after 48 hrs in presence of temozolomide by 5-Ethynyl-2'-deoxyuridine incorporation assay

GBM [6] = experiment: Cytotoxicity against patient-derived GBM cells assessed as LDH release after 96 hrs by spectrophotometric method; assay type: functional, cell-based; settings: Homo sapiens
GBM [7] = experiment: Selectivity ratio of IC50 for antiproliferative activity against patient-derived GBM cells to IC50 for antiproliferative activity against patient-derived GBM cells in presence of temozolomide; assay type: functional, Homo sapiens

| IC50 (GBM [5]) | SMILES | IC50 (GBM [1]) | EC50 (GBM [2]) | Ratio EC50 (GBM [3]) | EC50 (GBM [4]) | EC50 (GBM [6]) | Ratio IC50 (GBM [7]) |
| --- | --- | --- | --- | --- | --- | --- | --- |
| 1 nM | C[C@@H](Oc1cc(-c2cnn(C3CCN(C4=C(/C=C/C5=[N+](C)c6ccccc6C5(C)C)CCC/C4=C\C=C4\N(C)c5ccccc5C4(C)C)CC3)c2)cnc1N)c1c(Cl)ccc(F)c1Cl.[I-] | 4.7 nM | 15 nM | 3 | 50 nM | 93.1 nM |  |
| 480 nM | C[C@@H](Oc1cc(-c2cnn(C3CCNCC3)c2)cnc1N)c1c(Cl)ccc(F)c1Cl [CRIZOTINIB] | 540 nM | 3200 nM | 1.7 | 5600 nM | 4300 nM | 1.13 |
